Reference: ChEMBL document CHEMBL4028803, “Design, synthesis, and structure-activity relationship studies of benzothiazole derivatives as antifungal agents” (Eur J Med Chem, 2016)
≈ marks a conversion by molar mass, not a printed value.

Tested on: Candida albicans
Assay: Antifungal activity against Candida albicans ATCC SC5314 by broth microdilution assay
Type: functional
Conditions: not given

Compound | MIC [µg/mL]
CCOC(=O)[C@H](Cn1ccnc1)NC(=O)c1nc2ccc(Cl)cc2s1 | 0.5 (≈ 1.32 µM)
CC(C)COC(=O)[C@H](Cn1ccnc1)NC(=O)c1nc2ccc(C(F)(F)F)cc2s1 | 0.125 (≈ 0.284 µM)
COc1ccc2nc(C(=O)N[C@@H](Cn3ccnc3)C(=O)OCC(C)C)sc2c1 | 2 (≈ 4.97 µM)
CC(C)OC(=O)[C@H](Cn1ccnc1)NC(=O)c1nc2ccc(C(F)(F)F)cc2s1 | 0.125 (≈ 0.293 µM)
OC(Cn1cncn1)(Cn1cncn1)c1ccc(F)cc1F [FLUCONAZOLE] | 0.5 (≈ 1.63 µM)
CCC(C)n1ncn(-c2ccc(N3CCN(c4ccc(OCC5COC(Cn6cncn6)(c6ccc(Cl)cc6Cl)O5)cc4)CC3)cc2)c1=O (stereo unspecified) [ITRACONAZOLE] | 0.125 (≈ 0.177 µM)

Tested on: Candida albicans
Assay: Antifungal activity against Candida albicans CPCC 400523 by broth microdilution assay
Type: functional
Conditions: not given

Compound | MIC [µg/mL]
CCOC(=O)[C@H](Cn1ccnc1)NC(=O)c1nc2ccc(Cl)cc2s1 | 4 (≈ 10.6 µM)
CC(C)COC(=O)[C@H](Cn1ccnc1)NC(=O)c1nc2ccc(C(F)(F)F)cc2s1 | 2 (≈ 4.54 µM)
COc1ccc2nc(C(=O)N[C@@H](Cn3ccnc3)C(=O)OCC(C)C)sc2c1 | 4 (≈ 9.94 µM)
CC(C)OC(=O)[C@H](Cn1ccnc1)NC(=O)c1nc2ccc(C(F)(F)F)cc2s1 | 2 (≈ 4.69 µM)
OC(Cn1cncn1)(Cn1cncn1)c1ccc(F)cc1F [FLUCONAZOLE] | 1 (≈ 3.27 µM)
CCC(C)n1ncn(-c2ccc(N3CCN(c4ccc(OCC5COC(Cn6cncn6)(c6ccc(Cl)cc6Cl)O5)cc4)CC3)cc2)c1=O (stereo unspecified) [ITRACONAZOLE] | 0.5 (≈ 0.709 µM)

Tested on: Cryptococcus neoformans
Assay: Antifungal activity against Cryptococcus neoformans cgmcc 2.3161 by broth microdilution assay
Type: functional
Conditions: not given

Compound | MIC [µg/mL]
CCOC(=O)[C@H](Cn1ccnc1)NC(=O)c1nc2ccc(Cl)cc2s1 | 8 (≈ 21.1 µM)
CC(C)COC(=O)[C@H](Cn1ccnc1)NC(=O)c1nc2ccc(C(F)(F)F)cc2s1 | 0.5 (≈ 1.14 µM)
COc1ccc2nc(C(=O)N[C@@H](Cn3ccnc3)C(=O)OCC(C)C)sc2c1 | 8 (≈ 19.9 µM)
CC(C)OC(=O)[C@H](Cn1ccnc1)NC(=O)c1nc2ccc(C(F)(F)F)cc2s1 | 2 (≈ 4.69 µM)
OC(Cn1cncn1)(Cn1cncn1)c1ccc(F)cc1F [FLUCONAZOLE] | 4 (≈ 13.1 µM)
CCC(C)n1ncn(-c2ccc(N3CCN(c4ccc(OCC5COC(Cn6cncn6)(c6ccc(Cl)cc6Cl)O5)cc4)CC3)cc2)c1=O (stereo unspecified) [ITRACONAZOLE] | 1 (≈ 1.42 µM)

Tested on: Aspergillus fumigatus
Assay: Antifungal activity against Aspergillus fumigatus cgmcc 3.7795 by broth microdilution assay
Type: functional
Conditions: not given

Compound | MIC [µg/mL]
CCOC(=O)[C@H](Cn1ccnc1)NC(=O)c1nc2ccc(Cl)cc2s1 | > 64
CC(C)COC(=O)[C@H](Cn1ccnc1)NC(=O)c1nc2ccc(C(F)(F)F)cc2s1 | > 64
COc1ccc2nc(C(=O)N[C@@H](Cn3ccnc3)C(=O)OCC(C)C)sc2c1 | > 64
CC(C)OC(=O)[C@H](Cn1ccnc1)NC(=O)c1nc2ccc(C(F)(F)F)cc2s1 | > 64
OC(Cn1cncn1)(Cn1cncn1)c1ccc(F)cc1F [FLUCONAZOLE] | > 64
CCC(C)n1ncn(-c2ccc(N3CCN(c4ccc(OCC5COC(Cn6cncn6)(c6ccc(Cl)cc6Cl)O5)cc4)CC3)cc2)c1=O (stereo unspecified) [ITRACONAZOLE] | 4 (≈ 5.67 µM)

Tested on: Candida tropicalis
Assay: Antifungal activity against Candida tropicalis cgmcc 2.3739 by broth microdilution assay
Type: functional
Conditions: not given

Compound | MIC [µg/mL]
CCOC(=O)[C@H](Cn1ccnc1)NC(=O)c1nc2ccc(Cl)cc2s1 | 2 (≈ 5.28 µM)
CC(C)COC(=O)[C@H](Cn1ccnc1)NC(=O)c1nc2ccc(C(F)(F)F)cc2s1 | 0.5 (≈ 1.14 µM)
COc1ccc2nc(C(=O)N[C@@H](Cn3ccnc3)C(=O)OCC(C)C)sc2c1 | 1 (≈ 2.48 µM)
CC(C)OC(=O)[C@H](Cn1ccnc1)NC(=O)c1nc2ccc(C(F)(F)F)cc2s1 | 1 (≈ 2.35 µM)
OC(Cn1cncn1)(Cn1cncn1)c1ccc(F)cc1F [FLUCONAZOLE] | 1 (≈ 3.27 µM)
CCC(C)n1ncn(-c2ccc(N3CCN(c4ccc(OCC5COC(Cn6cncn6)(c6ccc(Cl)cc6Cl)O5)cc4)CC3)cc2)c1=O (stereo unspecified) [ITRACONAZOLE] | 0.5 (≈ 0.709 µM)

Tested on: Candida albicans
Assay: Antifungal activity against fluconazole-resistant Candida albicans 100 by broth microdilution assay
Type: functional
Conditions: not given

Compound | MIC [µg/mL]
CC(C)COC(=O)[C@H](Cn1ccnc1)NC(=O)c1nc2ccc(C(F)(F)F)cc2s1 | 32 (≈ 72.7 µM)
OC(Cn1cncn1)(Cn1cncn1)c1ccc(F)cc1F [FLUCONAZOLE] | > 64

Tested on: Candida albicans
Assay: Antifungal activity against fluconazole-resistant Candida albicans 103 by broth microdilution assay
Type: functional
Conditions: not given

Compound | MIC [µg/mL]
CC(C)COC(=O)[C@H](Cn1ccnc1)NC(=O)c1nc2ccc(C(F)(F)F)cc2s1 | 32 (≈ 72.7 µM)
OC(Cn1cncn1)(Cn1cncn1)c1ccc(F)cc1F [FLUCONAZOLE] | > 64

Target: T1, Lanosterol 14-alpha demethylase (Candida albicans (strain SC5314 / ATCC MYA-2876) (Yeast), UniProt P10613)
Assay: Inhibition of CYP51 in Candida albicans ATCC SC5314 assessed as ergosterol composition of the total sterol fraction in membrane at 8 ug/ml after 16 hrs by GC-MS analysis (reference value: 89.6%)
Set-up: scale not given: the % may be the effect or the level left
Conditions: candida albicans sc5314, 16 h

T1 sequence (P10613 whole entry): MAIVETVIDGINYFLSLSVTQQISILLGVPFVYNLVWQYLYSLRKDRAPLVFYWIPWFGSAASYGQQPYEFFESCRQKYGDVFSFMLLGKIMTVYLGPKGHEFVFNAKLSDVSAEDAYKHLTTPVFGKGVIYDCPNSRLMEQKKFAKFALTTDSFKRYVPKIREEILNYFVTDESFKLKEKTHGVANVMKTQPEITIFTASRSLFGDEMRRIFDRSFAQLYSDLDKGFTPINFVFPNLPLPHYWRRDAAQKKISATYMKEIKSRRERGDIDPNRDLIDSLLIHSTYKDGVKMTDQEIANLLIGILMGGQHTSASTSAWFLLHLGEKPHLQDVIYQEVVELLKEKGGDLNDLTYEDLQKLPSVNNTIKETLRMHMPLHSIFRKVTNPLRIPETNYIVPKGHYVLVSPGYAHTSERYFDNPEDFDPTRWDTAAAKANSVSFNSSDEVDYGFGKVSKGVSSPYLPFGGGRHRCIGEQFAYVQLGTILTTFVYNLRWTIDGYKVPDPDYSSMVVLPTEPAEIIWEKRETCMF

Compound | Activity [%]
OC(Cn1cncn1)(Cn1cncn1)c1ccc(F)cc1F [FLUCONAZOLE] | 2.1

Target: T1, Lanosterol 14-alpha demethylase
Assay: Inhibition of CYP51 in Candida albicans ATCC SC5314 assessed as obtusifoliol composition of the total sterol fraction in membrane at 8 ug/ml after 16 hrs by GC-MS analysis relative to control
Set-up: scale not given: the % may be the effect or the level left
Conditions: candida albicans sc5314, 16 h

Compound | Activity [%]
OC(Cn1cncn1)(Cn1cncn1)c1ccc(F)cc1F [FLUCONAZOLE] | 6.9

Target: T1, Lanosterol 14-alpha demethylase
Assay: Inhibition of CYP51 in Candida albicans ATCC SC5314 assessed as lanosterol composition of the total sterol fraction in membrane at 8 ug/ml after 16 hrs by GC-MS analysis (reference value: 2.9%)
Set-up: scale not given: the % may be the effect or the level left
Conditions: candida albicans sc5314, 16 h

Compound | Activity [%]
OC(Cn1cncn1)(Cn1cncn1)c1ccc(F)cc1F [FLUCONAZOLE] | 18.3

Target: T1, Lanosterol 14-alpha demethylase
Assay: Inhibition of CYP51 in Candida albicans ATCC SC5314 assessed as eburicol composition of the total sterol fraction in membrane at 8 ug/ml after 16 hrs by GC-MS analysis relative to control
Set-up: scale not given: the % may be the effect or the level left
Conditions: candida albicans sc5314, 16 h

Compound | Activity [%]
OC(Cn1cncn1)(Cn1cncn1)c1ccc(F)cc1F [FLUCONAZOLE] | 67.9

Target: T1, Lanosterol 14-alpha demethylase
Assay: Inhibition of CYP51 in Candida albicans ATCC SC5314 assessed as sterol composition in membrane at 8 ug/ml after 16 hrs by GC-MS analysis (reference value: 7.5%)
Set-up: scale not given: the % may be the effect or the level left
Conditions: candida albicans sc5314, 16 h

Compound | Activity [%]
OC(Cn1cncn1)(Cn1cncn1)c1ccc(F)cc1F [FLUCONAZOLE] | 4.8

Tested on: Candida albicans
Assay: Antifungal activity against Candida albicans by NCCLS method
Type: functional
Conditions: not given

Compound | MIC [µg/mL]
COC(=O)[C@H](Cn1ccnc1)NC(=O)c1nc2ccccc2s1 | 8 (≈ 24.2 µM)

Tested on: Cryptococcus neoformans
Assay: Antifungal activity against Cryptococcus neoformans by NCCLS method
Type: functional
Conditions: not given

Compound | MIC [µg/mL]
COC(=O)[C@H](Cn1ccnc1)NC(=O)c1nc2ccccc2s1 | 2 (≈ 6.05 µM)
